# Molecular target: T1, PI3Kα (Homo sapiens, UniProt P42336)
# T1 construct: purchased Millipore Corporation 14-602-K
# Experiment: PI3 Kinase HTRF assay, PI3Kα
# Type: biochemical
# Conditions: 10 μM PIP2, 10 μM ATP; read-out: PI3K α IC50
# Source text: (§1) A PI3 Kinase HTRF® assay kit (cat No. 33-016) purchased from Millipore Corporation was used to screen compounds disclosed herein. This assay used specific, high affinity binding of the GRP1 pleckstrin homology (PH) domain to PIP3, the product of a Class 1A or 1B PI3 Kinase acting on its physiological substrate PIP2. During the detection phase of the assay, a complex was generated between the GST-tagged PH domain and biotinylated short chain PIP3. The biotinylated PIP3 and the GST-tagged PH domain recruited fluorophores (Streptavidin-Allophycocyanin and Europium-labeled anti-GST respectively) to form the fluorescence resonance energy transfer (FRET) architecture, generating a stable time-resolved FRET signal. The FRET complex was disrupted in a competitive manner by non-biotinylated PIP3, a product formed in the PI3 Kinase assay.
# (§2) PI3 Kinase α, β, γ and δ activity was assayed using the PI3 Kinase HTRF® assay kit (catalogue No. 33-016) purchased from Millipore Corporation. Purified recombinant PI3Kα (catalogue No. 14-602-K), PI3Kβ (catalogue No. 14-603-K), PI3Kγ (catalogue No. 14-558-K) and PI3Kδ (catalogue No. 14-604-K) were obtained from Millipore Corporation. Purified recombinant PI3K enzyme was used to catalyze the phosphorylation of phosphatidylinositol 4,5-bisphosphate (PIP2 at 10 μM) to phosphatidylinositol 3,4,5-trisphosphate (PIP3) in the presence of 10 μM ATP. The assay was carried out in 384-well format and detected using a Perkin Elmer En Vision Xcite Multilabel Reader. Emission ratios were converted into percent inhibitions and imported into GraphPad Prism software. The concentration necessary to achieve inhibition of enzyme activity by 50% (IC50) was calculated using concentrations ranging from 20 μM to 0.1 nM (12-point curve). IC50 values were determined using a nonlinear regression model available in GraphPad Prism 5. […]
# T1 sequence (P42336 whole entry): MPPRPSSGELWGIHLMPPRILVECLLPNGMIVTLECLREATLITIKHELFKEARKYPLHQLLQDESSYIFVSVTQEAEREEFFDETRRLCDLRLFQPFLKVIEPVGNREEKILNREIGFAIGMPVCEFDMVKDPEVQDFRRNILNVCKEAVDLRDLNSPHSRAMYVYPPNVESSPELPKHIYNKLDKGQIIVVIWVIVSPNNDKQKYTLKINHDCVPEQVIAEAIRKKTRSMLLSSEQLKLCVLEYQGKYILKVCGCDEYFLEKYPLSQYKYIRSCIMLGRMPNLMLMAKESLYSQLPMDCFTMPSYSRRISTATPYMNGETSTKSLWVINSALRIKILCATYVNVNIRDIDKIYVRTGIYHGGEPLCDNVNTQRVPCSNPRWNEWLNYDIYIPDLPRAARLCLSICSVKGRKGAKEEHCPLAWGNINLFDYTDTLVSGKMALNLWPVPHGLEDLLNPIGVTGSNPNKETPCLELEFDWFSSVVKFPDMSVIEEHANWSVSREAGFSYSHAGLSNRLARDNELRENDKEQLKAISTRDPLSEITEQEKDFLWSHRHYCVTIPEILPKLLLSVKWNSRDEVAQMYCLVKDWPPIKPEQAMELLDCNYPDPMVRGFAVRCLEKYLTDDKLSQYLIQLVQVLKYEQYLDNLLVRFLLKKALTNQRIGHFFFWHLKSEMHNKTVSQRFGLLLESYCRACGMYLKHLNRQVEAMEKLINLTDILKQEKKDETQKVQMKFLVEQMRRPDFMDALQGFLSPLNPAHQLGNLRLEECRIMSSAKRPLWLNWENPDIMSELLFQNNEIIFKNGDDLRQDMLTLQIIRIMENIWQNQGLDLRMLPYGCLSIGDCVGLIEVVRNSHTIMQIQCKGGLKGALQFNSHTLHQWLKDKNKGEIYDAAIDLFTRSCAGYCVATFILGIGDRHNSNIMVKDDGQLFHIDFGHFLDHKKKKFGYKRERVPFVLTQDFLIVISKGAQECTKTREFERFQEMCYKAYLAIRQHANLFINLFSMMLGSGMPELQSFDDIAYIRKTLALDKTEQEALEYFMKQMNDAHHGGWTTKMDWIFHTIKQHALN
# T1 sequence (P27986 whole entry partner): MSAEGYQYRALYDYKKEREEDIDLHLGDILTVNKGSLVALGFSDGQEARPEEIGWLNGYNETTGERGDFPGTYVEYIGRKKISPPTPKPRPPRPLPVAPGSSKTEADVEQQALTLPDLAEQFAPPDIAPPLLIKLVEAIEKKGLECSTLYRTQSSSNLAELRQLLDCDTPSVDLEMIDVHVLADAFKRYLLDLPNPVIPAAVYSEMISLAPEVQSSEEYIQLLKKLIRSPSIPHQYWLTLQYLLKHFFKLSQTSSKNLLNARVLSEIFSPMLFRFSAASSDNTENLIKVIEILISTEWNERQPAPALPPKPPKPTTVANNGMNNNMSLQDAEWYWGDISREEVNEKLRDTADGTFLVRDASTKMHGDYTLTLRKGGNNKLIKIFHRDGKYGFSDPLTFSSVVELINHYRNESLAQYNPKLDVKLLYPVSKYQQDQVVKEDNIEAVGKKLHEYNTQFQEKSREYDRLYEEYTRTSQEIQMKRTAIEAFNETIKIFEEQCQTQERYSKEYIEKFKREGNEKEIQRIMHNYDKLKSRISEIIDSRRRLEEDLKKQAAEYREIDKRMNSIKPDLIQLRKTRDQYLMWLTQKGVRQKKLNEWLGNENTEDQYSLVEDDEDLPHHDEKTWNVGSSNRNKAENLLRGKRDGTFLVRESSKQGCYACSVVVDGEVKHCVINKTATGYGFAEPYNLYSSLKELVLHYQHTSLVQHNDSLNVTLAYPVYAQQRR
row,Compound,IC50
1,C[C@H](Nc1ncnc2[nH]cc(F)c12)c1cc2cccc(Cl)c2c(C(=O)N2CCOCC2)n1 [Compound 205],< 10 µM
2,C[C@H](Nc1ncnc2[nH]cc(C#N)c12)c1cc2cccc(Cl)c2c(C(=O)N2C3CCC2COC3)n1 [Compound 206],> 10 µM
3,C[C@H](Nc1ncnc2scnc12)c1cc2cccc(Cl)c2c(C(=O)NC2CCNCC2)n1 [Compound 209],< 10 µM
4,C[C@H](Nc1ncnc2scnc12)c1cc2cccc(Cl)c2c(C(=O)NC2CCN(C)CC2)n1 [Compound 210],> 10 µM
5,CC(C)N1CCC(NC(=O)c2nc([C@H](C)Nc3ncnc4scnc34)cc3cccc(Cl)c23)CC1 [Compound 211],> 10 µM
6,C[C@H](Nc1ncnc2scnc12)c1cc2cccc(Cl)c2c(C(=O)NC2CCOC2)n1 (stereo partly drawn) [Compound 215],> 10 µM
7,C[C@H](Nc1ncnc2scnc12)c1cc2cccc(Cl)c2c(C(=O)NCC2CCOCC2)n1 [Compound 216],> 10 µM
8,C[C@H](Nc1nc(N)ncc1C(F)(F)F)c1cc2cccc(Cl)c2c(C(=O)N2CCOCC2)n1 [Compound 217],> 10 µM
9,C[C@H](Nc1ncnc2scnc12)c1cc2cccc(Cl)c2c(C(=O)N2CCNC(=O)C2)n1 [Compound 218],> 10 µM
10,C[C@H](Nc1ncnc2cccnc12)c1cc2cccc(Cl)c2c(C(=O)N2CCS(=O)(=O)CC2)n1 [Compound 219],> 10 µM
11,CC1CN(C(=O)c2nc([C@H](C)Nc3ncnc4scnc34)cc3cccc(Cl)c23)CCO1 (stereo partly drawn) [Compound 221],> 10 µM
12,CC1CN(C(=O)c2nc([C@H](C)Nc3ncnc4cccnc34)cc3cccc(Cl)c23)CCO1 (stereo partly drawn) [Compound 222],< 10 µM
13,C[C@H](Nc1ncnc2scnc12)c1cc2cccc(Cl)c2c(C(=O)N(C)C)n1 [Compound 223],> 10 µM
14,C[C@H](Nc1ncnc2cccnc12)c1cc2cccc(Cl)c2c(C(=O)N(C)C)n1 [Compound 224],> 10 µM
15,C[C@H](Nc1ncnc2cccnc12)c1cc2cccc(Cl)c2c(C(=O)N2CCNC(=O)C2)n1 [Compound 225],< 10 µM
16,C[C@H](Nc1ncnc2cccnc12)c1cc2cccc(Cl)c2c(C(=O)N2CCC(F)(F)CC2)n1 [Compound 226],> 10 µM
17,C[C@H](Nc1ncnc2scnc12)c1cc2cccc(Cl)c2c(C(=O)N2CCCOCC2)n1 [Compound 227],< 10 µM
18,C[C@H](Nc1ncnc2scnc12)c1cc2cccc(Cl)c2c(C(=O)N2CCCCC2)n1 [Compound 229],< 10 µM

# Molecular target: T2, PI3Kδ (Homo sapiens, UniProt O00329)
# T2 construct: purchased Millipore Corporation 14-604-K
# Experiment: PI3 Kinase HTRF assay, PI3Kδ
# Type: biochemical
# Conditions: 10 μM PIP2, 10 μM ATP; read-out: PI3K δ IC50
# Source text: as §1, §2
# T2 sequence (O00329 whole entry): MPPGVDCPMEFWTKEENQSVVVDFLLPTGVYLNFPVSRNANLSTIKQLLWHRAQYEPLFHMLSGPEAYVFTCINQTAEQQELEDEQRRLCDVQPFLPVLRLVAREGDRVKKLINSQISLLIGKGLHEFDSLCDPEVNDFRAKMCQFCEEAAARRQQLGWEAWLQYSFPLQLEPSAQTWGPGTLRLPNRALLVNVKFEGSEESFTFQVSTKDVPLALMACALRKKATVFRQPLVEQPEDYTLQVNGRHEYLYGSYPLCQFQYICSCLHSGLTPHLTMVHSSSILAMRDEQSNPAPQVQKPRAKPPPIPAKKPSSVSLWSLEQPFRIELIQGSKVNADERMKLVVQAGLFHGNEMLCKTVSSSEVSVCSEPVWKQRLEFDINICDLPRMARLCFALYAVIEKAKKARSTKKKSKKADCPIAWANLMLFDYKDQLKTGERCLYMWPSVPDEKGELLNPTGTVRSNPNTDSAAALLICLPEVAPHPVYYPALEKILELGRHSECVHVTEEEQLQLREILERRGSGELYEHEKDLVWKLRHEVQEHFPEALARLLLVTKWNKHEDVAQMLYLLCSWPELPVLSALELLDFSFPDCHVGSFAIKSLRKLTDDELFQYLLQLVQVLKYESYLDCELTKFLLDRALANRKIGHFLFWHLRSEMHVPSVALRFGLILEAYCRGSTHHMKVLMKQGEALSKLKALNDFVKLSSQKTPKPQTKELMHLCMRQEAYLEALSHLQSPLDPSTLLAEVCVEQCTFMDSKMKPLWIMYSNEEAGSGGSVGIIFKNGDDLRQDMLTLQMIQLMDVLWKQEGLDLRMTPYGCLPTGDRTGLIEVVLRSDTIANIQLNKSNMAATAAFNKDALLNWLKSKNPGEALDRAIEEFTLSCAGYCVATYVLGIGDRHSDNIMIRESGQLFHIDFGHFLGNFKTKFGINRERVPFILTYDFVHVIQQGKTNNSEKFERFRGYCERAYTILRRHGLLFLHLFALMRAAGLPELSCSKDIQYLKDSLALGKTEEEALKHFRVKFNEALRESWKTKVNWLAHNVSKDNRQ
# T2 sequence (P27986 whole entry partner): as the sequence (P27986 whole entry partner) above
row,Compound,IC50
1,C[C@H](Nc1ncnc2[nH]cc(F)c12)c1cc2cccc(Cl)c2c(C(=O)N2CCOCC2)n1 [Compound 205],< 0.1 µM
2,C[C@H](Nc1ncnc2[nH]cc(C#N)c12)c1cc2cccc(Cl)c2c(C(=O)N2C3CCC2COC3)n1 [Compound 206],< 0.1 µM
3,C[C@H](Nc1ncnc2scnc12)c1cc2cccc(Cl)c2c(C(=O)NC2CCNCC2)n1 [Compound 209],< 0.1 µM
4,C[C@H](Nc1ncnc2scnc12)c1cc2cccc(Cl)c2c(C(=O)NC2CCN(C)CC2)n1 [Compound 210],< 0.1 µM
5,CC(C)N1CCC(NC(=O)c2nc([C@H](C)Nc3ncnc4scnc34)cc3cccc(Cl)c23)CC1 [Compound 211],< 1 µM
6,C[C@H](Nc1ncnc2scnc12)c1cc2cccc(Cl)c2c(C(=O)NC2CCOC2)n1 (stereo partly drawn) [Compound 215],< 0.1 µM
7,C[C@H](Nc1ncnc2scnc12)c1cc2cccc(Cl)c2c(C(=O)NCC2CCOCC2)n1 [Compound 216],< 1 µM
8,C[C@H](Nc1nc(N)ncc1C(F)(F)F)c1cc2cccc(Cl)c2c(C(=O)N2CCOCC2)n1 [Compound 217],< 1 µM
9,C[C@H](Nc1ncnc2scnc12)c1cc2cccc(Cl)c2c(C(=O)N2CCNC(=O)C2)n1 [Compound 218],< 0.1 µM
10,C[C@H](Nc1ncnc2cccnc12)c1cc2cccc(Cl)c2c(C(=O)N2CCS(=O)(=O)CC2)n1 [Compound 219],< 1 µM
11,CC1CN(C(=O)c2nc([C@H](C)Nc3ncnc4scnc34)cc3cccc(Cl)c23)CCO1 (stereo partly drawn) [Compound 221],< 0.1 µM
12,CC1CN(C(=O)c2nc([C@H](C)Nc3ncnc4cccnc34)cc3cccc(Cl)c23)CCO1 (stereo partly drawn) [Compound 222],< 1 µM
13,C[C@H](Nc1ncnc2scnc12)c1cc2cccc(Cl)c2c(C(=O)N(C)C)n1 [Compound 223],< 1 µM
14,C[C@H](Nc1ncnc2cccnc12)c1cc2cccc(Cl)c2c(C(=O)N(C)C)n1 [Compound 224],< 10 µM
15,C[C@H](Nc1ncnc2cccnc12)c1cc2cccc(Cl)c2c(C(=O)N2CCNC(=O)C2)n1 [Compound 225],< 1 µM
16,C[C@H](Nc1ncnc2cccnc12)c1cc2cccc(Cl)c2c(C(=O)N2CCC(F)(F)CC2)n1 [Compound 226],< 1 µM
17,C[C@H](Nc1ncnc2scnc12)c1cc2cccc(Cl)c2c(C(=O)N2CCCOCC2)n1 [Compound 227],< 0.1 µM
18,C[C@H](Nc1ncnc2scnc12)c1cc2cccc(Cl)c2c(C(=O)N2CCCCC2)n1 [Compound 229],< 0.1 µM

# Molecular target: T3, PI3Kγ (Homo sapiens, UniProt P48736)
# T3 construct: purchased Millipore Corporation 14-558-K
# Experiment: PI3 Kinase HTRF assay, PI3Kγ
# Type: biochemical
# Conditions: 10 μM PIP2, 10 μM ATP; read-out: PI3K γ IC50
# Source text: as §1, §2
# T3 sequence (P48736 whole entry): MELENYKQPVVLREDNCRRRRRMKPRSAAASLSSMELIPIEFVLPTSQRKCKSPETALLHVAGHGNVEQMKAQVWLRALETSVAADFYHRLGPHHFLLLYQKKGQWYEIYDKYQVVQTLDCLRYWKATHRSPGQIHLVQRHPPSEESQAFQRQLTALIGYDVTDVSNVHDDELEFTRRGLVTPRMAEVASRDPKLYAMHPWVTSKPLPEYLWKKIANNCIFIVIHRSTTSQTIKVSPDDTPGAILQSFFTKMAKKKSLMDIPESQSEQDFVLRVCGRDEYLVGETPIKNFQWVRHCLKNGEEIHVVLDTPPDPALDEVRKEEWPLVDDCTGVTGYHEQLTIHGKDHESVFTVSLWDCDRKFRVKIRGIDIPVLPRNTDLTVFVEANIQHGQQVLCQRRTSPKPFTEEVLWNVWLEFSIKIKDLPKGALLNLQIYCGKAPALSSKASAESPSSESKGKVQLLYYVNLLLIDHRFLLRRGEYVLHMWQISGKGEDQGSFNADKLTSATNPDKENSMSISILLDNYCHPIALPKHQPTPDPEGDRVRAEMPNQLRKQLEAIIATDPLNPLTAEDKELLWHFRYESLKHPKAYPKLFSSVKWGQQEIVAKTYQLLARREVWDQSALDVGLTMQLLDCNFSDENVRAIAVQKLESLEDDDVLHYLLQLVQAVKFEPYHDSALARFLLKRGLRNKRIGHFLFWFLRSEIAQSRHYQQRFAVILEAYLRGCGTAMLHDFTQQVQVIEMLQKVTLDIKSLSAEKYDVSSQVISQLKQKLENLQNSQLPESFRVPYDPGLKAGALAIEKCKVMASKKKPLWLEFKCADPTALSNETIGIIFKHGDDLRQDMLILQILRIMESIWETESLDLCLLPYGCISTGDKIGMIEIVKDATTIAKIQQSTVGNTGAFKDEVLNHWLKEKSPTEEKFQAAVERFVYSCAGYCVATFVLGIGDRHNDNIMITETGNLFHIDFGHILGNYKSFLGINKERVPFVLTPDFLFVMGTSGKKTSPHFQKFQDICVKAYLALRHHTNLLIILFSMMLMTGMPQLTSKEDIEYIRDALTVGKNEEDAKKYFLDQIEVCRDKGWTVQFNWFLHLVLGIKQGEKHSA
row,Compound,IC50
1,C[C@H](Nc1ncnc2[nH]cc(F)c12)c1cc2cccc(Cl)c2c(C(=O)N2CCOCC2)n1 [Compound 205],< 1 µM
2,C[C@H](Nc1ncnc2[nH]cc(C#N)c12)c1cc2cccc(Cl)c2c(C(=O)N2C3CCC2COC3)n1 [Compound 206],< 10 µM
3,C[C@H](Nc1ncnc2scnc12)c1cc2cccc(Cl)c2c(C(=O)NC2CCNCC2)n1 [Compound 209],> 10 µM
4,C[C@H](Nc1ncnc2scnc12)c1cc2cccc(Cl)c2c(C(=O)NC2CCN(C)CC2)n1 [Compound 210],> 10 µM
5,CC(C)N1CCC(NC(=O)c2nc([C@H](C)Nc3ncnc4scnc34)cc3cccc(Cl)c23)CC1 [Compound 211],> 10 µM
6,C[C@H](Nc1ncnc2scnc12)c1cc2cccc(Cl)c2c(C(=O)NC2CCOC2)n1 (stereo partly drawn) [Compound 215],< 10 µM
7,C[C@H](Nc1ncnc2scnc12)c1cc2cccc(Cl)c2c(C(=O)NCC2CCOCC2)n1 [Compound 216],> 10 µM
8,C[C@H](Nc1nc(N)ncc1C(F)(F)F)c1cc2cccc(Cl)c2c(C(=O)N2CCOCC2)n1 [Compound 217],< 10 µM
9,C[C@H](Nc1ncnc2scnc12)c1cc2cccc(Cl)c2c(C(=O)N2CCNC(=O)C2)n1 [Compound 218],< 1 µM
10,C[C@H](Nc1ncnc2cccnc12)c1cc2cccc(Cl)c2c(C(=O)N2CCS(=O)(=O)CC2)n1 [Compound 219],< 1 µM
11,CC1CN(C(=O)c2nc([C@H](C)Nc3ncnc4scnc34)cc3cccc(Cl)c23)CCO1 (stereo partly drawn) [Compound 221],< 1 µM
12,CC1CN(C(=O)c2nc([C@H](C)Nc3ncnc4cccnc34)cc3cccc(Cl)c23)CCO1 (stereo partly drawn) [Compound 222],< 1 µM
13,C[C@H](Nc1ncnc2scnc12)c1cc2cccc(Cl)c2c(C(=O)N(C)C)n1 [Compound 223],< 1 µM
14,C[C@H](Nc1ncnc2cccnc12)c1cc2cccc(Cl)c2c(C(=O)N(C)C)n1 [Compound 224],< 1 µM
15,C[C@H](Nc1ncnc2cccnc12)c1cc2cccc(Cl)c2c(C(=O)N2CCNC(=O)C2)n1 [Compound 225],< 1 µM
16,C[C@H](Nc1ncnc2cccnc12)c1cc2cccc(Cl)c2c(C(=O)N2CCC(F)(F)CC2)n1 [Compound 226],< 10 µM
17,C[C@H](Nc1ncnc2scnc12)c1cc2cccc(Cl)c2c(C(=O)N2CCCOCC2)n1 [Compound 227],< 10 µM
18,C[C@H](Nc1ncnc2scnc12)c1cc2cccc(Cl)c2c(C(=O)N2CCCCC2)n1 [Compound 229],< 10 µM

# Molecular target: T4, PI3Kβ (Homo sapiens, UniProt P42338)
# T4 construct: purchased Millipore Corporation 14-603-K
# Experiment: PI3 Kinase HTRF assay, PI3Kβ
# Type: biochemical
# Conditions: 10 μM PIP2, 10 μM ATP; read-out: PI3K β IC50
# Source text: as §1, §2
# T4 sequence (P42338 whole entry): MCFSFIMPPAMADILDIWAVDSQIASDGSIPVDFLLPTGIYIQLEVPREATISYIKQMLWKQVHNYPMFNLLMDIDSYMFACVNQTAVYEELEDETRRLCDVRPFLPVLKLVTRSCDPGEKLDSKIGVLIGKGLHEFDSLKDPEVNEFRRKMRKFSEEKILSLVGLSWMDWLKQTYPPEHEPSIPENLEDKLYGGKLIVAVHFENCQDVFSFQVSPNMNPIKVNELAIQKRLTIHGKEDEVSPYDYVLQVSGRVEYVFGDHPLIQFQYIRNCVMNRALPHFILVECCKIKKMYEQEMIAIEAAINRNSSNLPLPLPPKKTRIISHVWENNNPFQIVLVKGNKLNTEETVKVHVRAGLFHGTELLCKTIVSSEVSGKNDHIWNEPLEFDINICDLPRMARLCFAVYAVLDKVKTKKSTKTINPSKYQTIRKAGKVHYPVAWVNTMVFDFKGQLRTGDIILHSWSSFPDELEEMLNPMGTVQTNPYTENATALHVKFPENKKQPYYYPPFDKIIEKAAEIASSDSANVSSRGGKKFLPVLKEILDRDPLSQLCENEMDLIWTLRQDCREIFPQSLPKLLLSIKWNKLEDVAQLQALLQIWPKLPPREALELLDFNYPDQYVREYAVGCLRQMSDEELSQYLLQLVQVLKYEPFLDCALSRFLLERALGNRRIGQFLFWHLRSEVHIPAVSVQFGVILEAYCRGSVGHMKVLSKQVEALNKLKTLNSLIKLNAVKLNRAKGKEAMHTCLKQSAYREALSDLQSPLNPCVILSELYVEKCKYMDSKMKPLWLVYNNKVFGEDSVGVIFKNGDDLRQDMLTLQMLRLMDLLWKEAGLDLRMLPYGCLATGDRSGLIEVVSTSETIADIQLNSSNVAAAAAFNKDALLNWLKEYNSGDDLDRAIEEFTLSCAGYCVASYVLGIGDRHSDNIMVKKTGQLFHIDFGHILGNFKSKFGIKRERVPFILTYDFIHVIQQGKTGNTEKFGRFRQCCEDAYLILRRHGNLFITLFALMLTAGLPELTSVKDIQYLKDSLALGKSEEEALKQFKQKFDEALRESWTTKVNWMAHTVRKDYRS
# T4 sequence (P27986 whole entry partner): as the sequence (P27986 whole entry partner) above
row,Compound,IC50
1,C[C@H](Nc1ncnc2[nH]cc(F)c12)c1cc2cccc(Cl)c2c(C(=O)N2CCOCC2)n1 [Compound 205],< 10 µM
2,C[C@H](Nc1ncnc2[nH]cc(C#N)c12)c1cc2cccc(Cl)c2c(C(=O)N2C3CCC2COC3)n1 [Compound 206],< 10 µM
3,C[C@H](Nc1ncnc2scnc12)c1cc2cccc(Cl)c2c(C(=O)NC2CCNCC2)n1 [Compound 209],> 10 µM
4,C[C@H](Nc1ncnc2scnc12)c1cc2cccc(Cl)c2c(C(=O)NC2CCN(C)CC2)n1 [Compound 210],> 10 µM
5,CC(C)N1CCC(NC(=O)c2nc([C@H](C)Nc3ncnc4scnc34)cc3cccc(Cl)c23)CC1 [Compound 211],> 10 µM
6,C[C@H](Nc1ncnc2scnc12)c1cc2cccc(Cl)c2c(C(=O)NC2CCOC2)n1 (stereo partly drawn) [Compound 215],> 10 µM
7,C[C@H](Nc1ncnc2scnc12)c1cc2cccc(Cl)c2c(C(=O)NCC2CCOCC2)n1 [Compound 216],> 10 µM
8,C[C@H](Nc1nc(N)ncc1C(F)(F)F)c1cc2cccc(Cl)c2c(C(=O)N2CCOCC2)n1 [Compound 217],> 10 µM
9,C[C@H](Nc1ncnc2scnc12)c1cc2cccc(Cl)c2c(C(=O)N2CCNC(=O)C2)n1 [Compound 218],< 10 µM
10,C[C@H](Nc1ncnc2cccnc12)c1cc2cccc(Cl)c2c(C(=O)N2CCS(=O)(=O)CC2)n1 [Compound 219],> 10 µM
11,CC1CN(C(=O)c2nc([C@H](C)Nc3ncnc4scnc34)cc3cccc(Cl)c23)CCO1 (stereo partly drawn) [Compound 221],> 10 µM
12,CC1CN(C(=O)c2nc([C@H](C)Nc3ncnc4cccnc34)cc3cccc(Cl)c23)CCO1 (stereo partly drawn) [Compound 222],> 10 µM
13,C[C@H](Nc1ncnc2scnc12)c1cc2cccc(Cl)c2c(C(=O)N(C)C)n1 [Compound 223],< 10 µM
14,C[C@H](Nc1ncnc2cccnc12)c1cc2cccc(Cl)c2c(C(=O)N(C)C)n1 [Compound 224],< 10 µM
15,C[C@H](Nc1ncnc2cccnc12)c1cc2cccc(Cl)c2c(C(=O)N2CCNC(=O)C2)n1 [Compound 225],> 10 µM
16,C[C@H](Nc1ncnc2cccnc12)c1cc2cccc(Cl)c2c(C(=O)N2CCC(F)(F)CC2)n1 [Compound 226],> 10 µM
17,C[C@H](Nc1ncnc2scnc12)c1cc2cccc(Cl)c2c(C(=O)N2CCCOCC2)n1 [Compound 227],< 10 µM
18,C[C@H](Nc1ncnc2scnc12)c1cc2cccc(Cl)c2c(C(=O)N2CCCCC2)n1 [Compound 229],< 1 µM
